Laboratory results reported in patent publication EP4810052A2, “HCRHR2 SELECTIVE POLYPEPTIDES” (Gubra A/S, priority 2023, dated 2026).
Like-named read-outs stand apart in the source and are kept apart here. Starred links: 1 amine or outer side, 2 acyl side, 3 side chain; linkers in the order of their positions; H or OH if unused. Non-standard residues stand in square brackets, D forms with d. Residues, ends and D or L forms follow the SMILES beside them. Groups on a side chain read outwards from the residue. *: point of attachment. C20 diacid = O=C(O)CCCCCCCCCCCCCCCCCCC(=O)*; γGlu = O=C(O)[C@H](CCC(=O)[*:2])N[*:1]; NMeI = CC[C@H](C)[C@H](NC)C(=O)O; Nle = CCCC[C@H](N)C(=O)O; AEEA = NCCOCCOCC(=O)O; Aib = CC(C)(N)C(=O)O

Key:
[1] = PK in mice; assay type: in vivo; parameters: T½ / MRT: unit: h; details: for MRT / T½ / clearance / half-life / Cmax / Tmax: Mouse; for bioavailability / clearance / half-life / Cmax / Tmax: male, in vivo; for bioavailability: NMRI, mouse; for clearance / half-life / Cmax / Tmax: NMRI/RjHan; for half-life: read-out: T½ (converted)
Method: Lean male NMRI/RjHan mice were obtained from JanVier (JanVier Labs, France) at 6 weeks of age. The animals were single housed under a 12/12 h dark-light cycle, light off at 3 PM. Room temperature was controlled to 22°C ± 1°C, with 60 % ± 20% humidity. Animals had ad libitum access to regular rodent chow (Altromin 1324, Brogaarden, Denmark) and tap water.
After 2 weeks of acclimatization, the animals were randomized into treatment groups (n=9 per group) based on body weight. Animals were dosed IV with one peptide and SC with another peptide (15 or 50 nmol/kg) Plasma samples were collected for PK analysis at times 0.17, 1, 3, 6, 24, 30, 48, 72 and 96 hours post dosing in a sparse sampling design with 3 mice per group per timepoint. Plasma samples were analyzed using LC-MSMS and PK parameters were estimated by Non-Compartmental Analysis (NCA).

[2] = molecular target: T1, hCRHR2a (Homo sapiens, UniProt Q13324); assay: cAMP potency, transiently transfected CHO-K1 cells, hCRHR2a; assay type: cell-based; details: transiently transfected CHO-K1, average n=3; read-out: Transient cell system EC50 (nM) hCRHR 2a
T1 construct: DYK (FLAG); host or cells: CHO-K1, transiently transfected
T1 sequence (Q13324 1-411): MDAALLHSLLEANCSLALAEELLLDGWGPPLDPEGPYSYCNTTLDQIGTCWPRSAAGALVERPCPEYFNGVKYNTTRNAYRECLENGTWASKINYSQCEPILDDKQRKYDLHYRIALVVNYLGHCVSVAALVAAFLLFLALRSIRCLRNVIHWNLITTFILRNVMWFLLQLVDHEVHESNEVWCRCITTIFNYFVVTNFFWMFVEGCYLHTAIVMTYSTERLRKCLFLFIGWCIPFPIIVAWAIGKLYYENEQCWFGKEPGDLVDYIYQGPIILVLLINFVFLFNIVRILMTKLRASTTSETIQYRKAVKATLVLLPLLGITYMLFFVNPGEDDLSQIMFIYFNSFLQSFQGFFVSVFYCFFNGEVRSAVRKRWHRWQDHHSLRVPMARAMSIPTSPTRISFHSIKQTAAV

[3] = Thioflavin T fibril formation assay of purified peptides; assay type: physicochemical; parameters: key: Amyloid fibril formation detected by an increase in ThT fluorescence was denoted with "Yes"; samples without increasing ThT fluorescence hence not forming amyloid fibrils were denoted "No"; details: for Amyloid fibril formation + semaglutide (Ozempic®), pH 7.4: 200 µM compound dissolved in semaglutide drug product, listed as None = drug product alone; for Amyloid fibril formation pH 7.0 / Amyloid fibril formation pH 7.5 / Amyloid fibril formation pH 8.0: 200 µM in 50 mM phosphate buffer
Summary of the method: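 Fibril formation read as rising ThT emission at 480 nm (450 nm excitation), 4 µM ThT, over 96 h at 40°C with alternating 5-min rest and 700 rpm shaking cycles, in triplicate. Samples were 200 µM compound in 50 mM phosphate at various pH values, or co-formulated at 200 µM in semaglutide product at pH 7.4.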

[4] = system: pCRHR1; assay: cAMP potency, transiently transfected CHO-K1 cells, pCRHR1; assay type: cell-based, pig; details: transiently transfected CHO-K1, average n=3; read-out: Transient cell system EC50 (nM) pCRHR 1
Method: Selected peptides were tested for potency on different species (mouse, rat, porcine) using transiently transfected CHO-K1 cells using the general procedure.

[5] = Chemical stability of purified peptides (RP-UHPLC main peak purity loss); assay type: physicochemical; details: for Purity loss (RP-UPLC analysis) T14-T0 (%): 14 days; for Purity loss (RP-UPLC analysis) T28-T0 (%): 28 days; for Chemical stability at pH 7.5 after 14 days at 40°C (% degradation): pH 7.5, 14 days; for Chemical stability at pH 7.5 after 28 days at 40°C (% degradation): pH 7.5, 28 days
Summary of the method: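 Purity loss is the drop in RP-UHPLC main-peak area fraction (215 nm detection, C8 column at 50 °C) from time zero to day 14 and/or day 28 at 40 °C. Samples held roughly 1.0 mg/ml peptide in 50 mM phosphate, pH 7.5, with other pH targets also tested.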

SMILES	MRT [1]	T½ [1]	bioavailability ([1]; sc) [%]	clearance ([1]; iv, 15 nmol/kg i.v.) [mL/h/kg]	half-life ([1]; iv, 15 nmol/kg i.v.) [h]	Cmax ([1]; sc, 15 nmol/kg s.c.) [nM]	Tmax ([1]; sc, 15 nmol/kg s.c.) [h]	half-life ([1]; sc, 15 nmol/kg s.c.) [h]	EC50 [2] [nM]	Amyloid fibril formation + semaglutide (Ozempic®), pH 7.4 [3]	Amyloid fibril formation pH 7.0 [3]	Amyloid fibril formation pH 7.5 [3]	Amyloid fibril formation pH 8.0 [3]	Fibrillation (pH 7.5) [3]	EC50 [4] [nM]	Purity loss (RP-UPLC analysis) T14-T0 (%) ([5]; pH 7.0, 40°C)	Purity loss (RP-UPLC analysis) T28-T0 (%) ([5]; pH 7.0, 40°C)	Purity loss (RP-UPLC analysis) T14-T0 (%) ([5]; pH 7.5, 40°C)	Purity loss (RP-UPLC analysis) T28-T0 (%) ([5]; pH 7.5, 40°C)	Chemical stability at pH 7.5 after 14 days at 40°C (% degradation) [5] [%]	other results
CCCC[C@H](NC(=O)[C@@H](NC(=O)[C@H](CCC(=O)O)NC(=O)C(C)(C)NC(=O)[C@H](CC(N)=O)NC(=O)[C@@H](NC(=O)[C@H](CCCCNC(=O)COCCOCCNC(=O)COCCOCCNC(=O)CC[C@H](NC(=O)CC[C@H](NC(=O)CCCCCCCCCCCCCCCCCCC(=O)O)C(=O)O)C(=O)O)NC(=O)[C@H](C)NC(=O)[C@H](CCC(N)=O)NC(=O)[C@H](CCC(=O)O)NC(=O)[C@H](CCCNC(=N)N)NC(=O)[C@H](C)NC(=O)[C@H](C)NC(=O)[C@H](CCCNC(=N)N)NC(=O)[C@H](C)NC(=O)[C@H](CCCNC(=N)N)NC(=O)[C@H](C)NC(=O)[C@H](CCC(N)=O)NC(=O)[C@H](CO)NC(=O)[C@H](CC(C)C)NC(=O)[C@H](CC(C)C)NC(=O)[C@@H](NC(=O)[C@H](CCC(N)=O)NC(=O)[C@H](CC(C)C)NC(=O)[C@H](CC(C)C)NC(=O)CNC(=O)[C@@H](NC(=O)[C@@H]1CCCN1C(=O)[C@@H](NC(=O)[C@H](CC(=O)O)NC(=O)[C@H](CC(C)C)NC(=O)[C@H](CO)NC(=O)[C@H](CC(C)C)NC(=O)[C@@H](NC(=O)[C@@H](NC)[C@@H](C)CC)C(C)C)C(C)C)[C@@H](C)CC)[C@@H](C)CC)[C@@H](C)O)[C@@H](C)CC)C(=O)N[C@@H](C)C(=O)N[C@@H](CCC(=O)O)C(=O)N[C@H](C(N)=O)C(C)C [SEQ ID NO: 215] (H-[NMeI]VLSLDVPIGLLQILLSQARARAAREQAK([AEEA-AEEA-γGlu-γGlu-C20 diacid])TN[Aib]EI[Nle]AEV-NH2)	17.4	12.6	56	4	12.6	58	6	14.1	0.013	No	No	No	No	No	> 1000	0.2	-0.3	0.1	-0.1	-0.92	Chemical stability at pH 7.5 after 28 days at 40°C (% degradation) [5]: 0.31%; Purity loss (RP-UPLC analysis) T14-T0 (%) ([5]; pH 8.0, 40°C): -0.4%; Purity loss (RP-UPLC analysis) T28-T0 (%) ([5]; pH 8.0, 40°C): -0.7%
CCCC[C@H](NC(=O)[C@@H](NC(=O)[C@H](CCC(=O)O)NC(=O)[C@H](C)NC(=O)[C@H](CC(N)=O)NC(=O)C(C)(C)NC(=O)[C@H](CCCCNC(=O)COCCOCCNC(=O)COCCOCCNC(=O)CC[C@H](NC(=O)CC[C@H](NC(=O)CCCCCCCCCCCCCCCCCCC(=O)O)C(=O)O)C(=O)O)NC(=O)[C@H](C)NC(=O)[C@H](CCC(N)=O)NC(=O)[C@H](CCC(=O)O)NC(=O)[C@H](CCCNC(=N)N)NC(=O)[C@H](C)NC(=O)[C@H](C)NC(=O)[C@H](CCCNC(=N)N)NC(=O)[C@H](C)NC(=O)[C@H](CCCNC(=N)N)NC(=O)[C@H](C)NC(=O)[C@H](CCC(N)=O)NC(=O)[C@H](CO)NC(=O)[C@H](CC(C)C)NC(=O)[C@H](CC(C)C)NC(=O)[C@@H](NC(=O)[C@H](CCC(N)=O)NC(=O)[C@H](CC(C)C)NC(=O)[C@H](CC(C)C)NC(=O)CNC(=O)[C@@H](NC(=O)[C@@H]1CCCN1C(=O)[C@@H](NC(=O)[C@H](CC(=O)O)NC(=O)[C@H](CC(C)C)NC(=O)[C@H](CO)NC(=O)[C@H](CC(C)C)NC(=O)[C@@H](NC(=O)[C@@H]1CCCN1)C(C)C)C(C)C)[C@@H](C)CC)[C@@H](C)CC)[C@@H](C)CC)C(=O)N[C@@H](C)C(=O)N[C@@H](CCC(=O)O)C(=O)N[C@H](C(N)=O)C(C)C [SEQ ID NO: 238] (H-PVLSLDVPIGLLQILLSQARARAAREQAK([AEEA-AEEA-γGlu-γGlu-C20 diacid])[Aib]NAEI[Nle]AEV-NH2)	21.4	19.6	60	4.4	19.6	48	24	25.2	0.018	No	No	No	No	No	> 5000	-1.0	-1.2	-3.1	-4.8	-1.6	Chemical stability at pH 7.5 after 28 days at 40°C (% degradation) [5]: -4.6%; Purity loss (RP-UPLC analysis) T14-T0 (%) ([5]; pH 8.0, 40°C): -5.1%; Purity loss (RP-UPLC analysis) T28-T0 (%) ([5]; pH 8.0, 40°C): -9.8%
